The text below walks through data of US9850245B2 (Merck Sharp & Dohme Corp., priority 2014, dated 2017).

The target of test [1] is ROMK (Homo sapiens (Human), UniProt P48048). The experiment in a line: Thallium Flux Assay. It counts as cell-based. The procedure: A Thallium Flux Assay was performed on the compounds of the Examples. This assay has been described previously; see, e.g., PCT Published Application WO 2013/062900.
Test [2] deals with Kir1.1 (ROMK1) (Homo sapiens (Human), UniProt P48048). As to the kind of experiment: Electrophysiology Assay (whole cell voltage clamp, IonWorks Quattro). It is filed as cell-based. The conditions noted are these: Chinese hamster ovary cells stably expressing Kir1.1; fractional block at voltage step to 0 mV; 6 min compound incubation. The procedure: Blocking of Kir1.1 (ROMK1) currents was examined by whole cell voltage clamp (Hamill et. al. Pfluegers Archives 391:85-100 (1981)) using the IonWorks Quattro automated electrophysiology platform (Molecular Devices, Sunnyvale, Calif.). Chinese hamster ovary cells stably expressing Kir1.1 channels were maintained in T-75 flasks in cell culture media in a humidified 10% CO2 incubator at 37° C. Prior to an experiment, Kir1.1 expression was induced by overnight incubation with 1 mM sodium butyrate. On the day of the experiment, cells were dissociated with 2.5 mL of Versene (Invitrogen 15040-066), a non-enzymatic cell dissociation reagent, for approximately 6 min at 37° C. and suspended in 10 mL of bath solution containing (in mM): 150 NaCl, 10 KCl, 2.7 CaCl2, 0.5 MgCl2, and 5 HEPES, at pH 7.4. After centrifugation, the cell pellet was resuspended in approximately 4.0 mL of bath solution and placed in the IonWorks instrument. The intracellular solution consisted of (in mM): 80 K gluconate, 40 KCl, 20 KF, 3.2 MgCl2, 3 EGTA, and 5 Hepes, at pH 7.4. Electrical access to the cytoplasm was achieved by perforation in 0.13 mg/mL amphotericin B for 4 min. Amphotericin B (Sigma A-4888) was prepared as a 40 mg/mL solution in DMSO.
Sequence of Kir1.1 (ROMK1) (P48048 whole entry): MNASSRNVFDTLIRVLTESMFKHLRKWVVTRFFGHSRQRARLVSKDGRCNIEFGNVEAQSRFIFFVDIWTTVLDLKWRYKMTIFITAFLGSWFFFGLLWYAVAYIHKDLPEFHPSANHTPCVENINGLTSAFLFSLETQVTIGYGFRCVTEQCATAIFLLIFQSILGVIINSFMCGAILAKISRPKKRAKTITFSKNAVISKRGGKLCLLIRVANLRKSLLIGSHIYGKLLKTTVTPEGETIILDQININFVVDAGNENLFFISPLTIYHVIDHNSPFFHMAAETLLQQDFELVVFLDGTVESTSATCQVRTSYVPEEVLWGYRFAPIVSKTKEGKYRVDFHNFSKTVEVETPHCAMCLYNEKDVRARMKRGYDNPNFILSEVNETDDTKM
Voltage protocols and current recordings were performed using the IonWorks HT software/hardware system. Currents were sampled at 1 kHz. There was no correction for liquid junction potentials. The test pulse, consisting of a 100 ms (millisecond) step to 0 mV (millivolts) from a holding potential of −70 mV, followed by a 100 ms voltage ramp from −70 mV to +70 mV, was applied before and after a 6 min compound incubation period. Test compounds were prepared by diluting DMSO stock solutions into the bath solution at 3× the final concentration and placed in the instrument in 96-well polypropylene plates. Current amplitudes were measured using the IonWorks software. To assess compound potency, the fractional block during the voltage step to 0 mV was calculated in Microsoft Excel (Microsoft, Redmond, Calif.), and dose-response curves were fitted with Igor Pro 4.0 (WaveMetrics, Lake Oswego, Oreg.).

Sequence of ROMK (P48048 whole entry): as above

On to `CC1=C(N2CCOC3(CCN(CC(O)c4ccc(-n5cnnn5)nc4C)CC3)C2=O)COC1=O` (stereo not drawn) [Example 39, 9-(2-hydroxy-2-(2-methyl-6-(1H-tetrazol-1-yl)pyridin-3-yl)ethyl)-4-(4-methyl-5-oxo-2,5-dihydrofuran-3-yl)-1-oxa-4,9-diazaspiro[5.5]undecan-5-one], for which the half-maximal inhibitory concentration (IC50) in test [1] is 11.2 nM; in test [2], 13 nM.

Regarding `CC1=C(N2CCOC3(CCN(CC(O)c4ccc(-n5cnnn5)nc4C)CC3)C2)COC1=O` (single isomer, unassigned) [Example 22A, 4-(9-(2-hydroxy-2-(2-methyl-6-(1H-tetrazol-1-yl)pyridin-3-yl)ethyl)-1-oxa-4,9-diazaspiro[5.5]undecan-4-yl)-3-methylfuran-2(5H)-one], the figures for the concentration for half-maximal inhibition (IC50) in test [1] and in test [2] were 34 nM and 11 nM, respectively.

Turning to `CC1=C(N2CCOC3(CCN(C[C@H](O)c4ccc5c(c4C)COC5=O)CC3)C2=O)COC1=O` [Example 8A, (R)-9-(2-hydroxy-2-(4-methyl-1-oxo-1,3-dihydroisobenzofuran-5-yl)ethyl)-4-(4-methyl-5-oxo-2,5-dihydrofuran-3-yl)-1-oxa-4,9-diazaspiro[5.5]undecan-5-one], the IC50 in test [1] came to 13.3 nM; in test [2], 6.4 nM.

Regarding `Cc1c([C@@H](O)CN2C3CCC2CC2(C3)OCCN(C3=CC(=O)OC3)C2=O)ccc2c1COC2=O` (stereo partly drawn) [Example 36, (1R,2′R,5S)-8-((R)-2-hydroxy-2-(4-methyl-1-oxo-1,3-dihydroisobenzofuran-5-yl)ethyl)-4′-(5-oxo-2,5-dihydrofuran-3-yl)-8-azaspiro[bicyclo[3.2.1]octane-3,2′-morpholin]-3′-one], the IC50 was 29.3 nM in test [1] and 13.4 nM in test [2].

For the compound `Cc1nc(-n2cnnn2)ccc1C(O)CN1CCC2(CC1)CN(C1=CC(=O)OC1)CCO2` (single isomer, unassigned) [Example 20A, 4-(9-(2-hydroxy-2-(2-methyl-6-(1H-tetrazol-1-yl)pyridin-3-yl)ethyl)-1-oxa-4,9-diazaspiro[5.5]undecan-4-yl)furan-2(5H)-one], the half-maximal inhibitory concentration (IC50) in test [1] is 61.5 nM; in test [2] it was 37 nM.

Turning to `CC1=C(N2CCOC3(CCN(CC(O)c4cnc(-n5cnnn5)nc4)CC3)C2=O)COC1=O` (single isomer, unassigned) [Example 46A, 9-(2-(2-(1H-tetrazol-1-yl)pyrimidin-5-yl)-2-hydroxyethyl)-4-(4-methyl-5-oxo-2,5-dihydrofuran-3-yl)-1-oxa-4,9-diazaspiro[5.5]undecan-5-one], the IC50 in test [1] is 56 nM; in test [2], 51 nM.
